One compound from ChEMBL document CHEMBL1201862, “PubChem BioAssay data set” (2004) can be followed below.

Some test systems named below: IGROV-1; MOLT-4; RXF 393; MDA-MB-231; CAKI-1; RPMI-8226; HOP-62; HCT-15; SK-MEL-2; NCI/ADR-RES; 786-0; MDA-MB-435; UO-31; Hs-578T; SF-295; SK-OV-3; LOX IMVI; COLO 205; TK-10; PC-3.
Test in all cases: NCI-60 cell line screen, 48 h

Each structure is given as a SMILES string.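 Protocol summary: plate cells (96-well), add compound at 5 concentrations, incubate 48 h, interpolate endpoints linearly. Here, GI50 denotes the concentration required for 50% inhibition of growth.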 Calls of active or inactive are those of the source. Cut-off read from the data, not from the text of the source: active = GI50 up to about 1.1 µM and inactive = higher.

Consider `N=c1oc2ccccc2cc1-c1nc2ccccc2c(=O)[nH]1`, for which the GI50 was 6 µM (inactive) with IGROV-1; > 100 µM (inactive) in the assay with MOLT-4; 31.4 µM (inactive) with RXF 393; 29.3 µM (inactive) with MDA-MB-231; > 100 µM (inactive) in the assay with CAKI-1; > 100 µM (inactive) with RPMI-8226. Moreover, the GI50 in the assay with HOP-62 is 22.7 µM (inactive); in the assay on HCT-15 it was 78.2 µM; with SK-MEL-2, 58.9 µM (inactive); in the assay with NCI/ADR-RES, 72.6 µM (inactive); in the assay on 786-0, 31.4 µM (inactive); in the assay with MDA-MB-435, > 100 µM (inactive). Besides, the GI50 is 27.1 µM (inactive) with UO-31; 23.2 µM (inactive) in the assay on Hs-578T; 32.7 µM (inactive) in the assay with SF-295; > 100 µM (inactive) in the assay with SK-OV-3; 54.5 µM (inactive) with LOX IMVI; > 100 µM (inactive) in the assay on COLO 205. In addition, the figures for the GI50 in the assay on TK-10 and in the assay with PC-3 were 35.3 µM (inactive) and > 100 µM (inactive), respectively.
